This note sets out measurements from patent US20260109678A1, “SUBSTITUTED PHENOTHIAZINES AS FERROPTOSIS INHIBITORS” (Universiteit Antwerpen, priority 2022, published 2026).

The nature of data set [1]: Fluorescence-enabled inhibited autoxidation (FENIX) assay. The class given is biochemical. As to conditions: RTA 2 μM, liposomes 1 mM; for Logkinh: FENIX assay; for kinh (10^4 M^−1s^−1) ± SD: inhibition rate constant, STY-BODIPY 1 μM, DTUN initiator, 37° C. As to the method:
Unless otherwise stated, laboratory reagent grade solvents were used. Reagents were obtained from various commercial sources and were used without any prior purification. L-α-phosphatidylcholine (Egg, Chicken), powder was purchased from Merck Life Science B.V.. DTUN and STY-BODIPY were synthesized according to methods described in Shah et al. (2019) Cell Chem. Biol. 26, 1594-1607. Fluorescence was measured using the UV/vis spectrophotometer Synergy MX, Biotek with Gen5.
In order to quantify radical trapping antioxidant activity in phospholipid bilayers to a clear bottom black-walled 96-well plate for fluorescence-base assays (Invitrogen by Thermo Fisher Scientific) was added 250 μL of a solution containing liposomes (1 mM), styrene-conjugated BODIPY (STY-BODIPY, 1 μM), and the respective radical trapping antioxidant (RTA, 2 μM). The solutions were made in larger volumes in Eppendorfs, pre-mixed and 250 μL aliquot was transferred to each well. The plate was incubated for 10 minutes at 37° C. in the BioTek SynergyMx plate reader, followed by a fast-mixing protocol for 5 minutes. The plate was ejected from the plate reader and autoxidation was initiated by the addition of a 50 μL aliquot of (E)-1,2-bis((2-methyldecan-2-yl)oxy)diazene (DTUN, 0.2 mM in EtOH/PBS 3/47, v/v), followed by another mixing protocol for 5 minutes. Data were acquired by excitation probes at 488 nm and emission was measured at 518 nm (read intervals 1.0 min). Kinetic read parameters: (i) optic position: bottom, (ii) gain: 80, (iii) bandwidth: 9.0. The results of the FENIX assay are presented in Table 2 as inhibition rate constants (kinh), logkinh and stoichiometries (n) of tested compounds.

Data set [2] is described as follows: Kinetic solubility (turbidimetric method). The class given is physicochemical. As to conditions: aqueous buffer, kinetic from dmso stock, PBS buffer pH 7.4, 2 hours at 37° C., read-out: Kin. solubility.

≈ marks a conversion by molar mass, not a printed value. Counter-ions that a name gives are not always drawn.

For `O=C(NCCN1CCNCC1)c1cc(NC2CCCCC2)c2c(c1)Sc1ccccc1N2` [CPD-030, 1-(Cyclohexylamino)-N-(2-(piperazin-1-yl)ethyl)-10H-phenothiazine-3-carboxamide tetrahydrochloride], in data set [1], the Logkinh is 2.13 ± 0.13 and the “kinh (10^4 M^−1s^−1) ± SD” value is on record as 4.24 ± 0.05 10^4 M^−1s^−1.
As for `O=C(c1ccc2c(c1)Sc1ccccc1N2)N1CCOCC1` [CPD-031, Morpholino(10H-phenothiazin-3-yl)methanone], in data set [1], the Logkinh was 2.11 ± 0.04 and the “kinh (10^4 M^−1s^−1) ± SD” value is listed as 1.15 ± 0.01 10^4 M^−1s^−1.
As to `O=C(NCCN1CCOCC1)c1ccc2c(c1)Sc1ccccc1N2` [CPD-032, N-(2-morpholinoethyl)-10H-phenothiazine-3-carboxamide], in data set [1], the Logkinh stood at 2.29 ± 0.11 and the “kinh (10^4 M^−1s^−1) ± SD” value is given as 1.14 ± 0.01 10^4 M^−1s^−1.
In the same order, the values of `CNCCNC(=O)c1ccc2c(c1)Sc1ccccc1N2` [CPD-033, N-(2-(methylamino)ethyl)-10H-phenothiazine-3-carboxamide dihydrochloride] are 2.68 ± 0.07 and 1.21 ± 0.01 10^4 M^−1s^−1.
In the case of `NCCNC(=O)c1ccc2c(c1)Sc1ccccc1N2` [CPD-034, N-(2-aminoethyl)-10H-phenothiazine-3-carboxamide dihydrochloride], in data set [1], the Logkinh turned out to be 2.41 ± 0.13 and the “kinh (10^4 M^−1s^−1) ± SD” value is listed as 1.23 ± 0.01 10^4 M^−1s^−1.
`O=C(c1ccc2c(c1)Sc1ccccc1N2)N1CCNCC1` [CPD-035, (10H-phenothiazin-3-yl)(piperazin-1-yl)methanone dihydrochloride]: in data set [1], the Logkinh is given as 2.51 ± 0.05 and the “kinh (10^4 M^−1s^−1) ± SD” value is 1.26 ± 0.04 10^4 M^−1s^−1.
In the same order, the values of `O=C(NCCN1CCNCC1)c1ccc2c(c1)Sc1ccccc1N2` [CPD-036, N-(2-(piperazin-1-yl)ethyl)-10H-phenothiazine-3-carboxamide trihydrochloride] are 2.30 ± 0.09 and 1.24 ± 0.04 10^4 M^−1s^−1.
One may read the solubility as the dissolved amount per volume that the medium holds. With `O=Cc1ccc2c(c1)Sc1ccccc1N2` [CPD-037, 10H-phenothiazine-3-carbaldehyde], the solubility at 2 h in data set [2] lay within 12.5 to 50 µM (≈ 2.84 to 11.4 µg/mL).
`c1ccc2c(c1)Nc1ccc(CNCCN3CCOCC3)cc1S2` [CPD-038]: in data set [1], the Logkinh is given as 3.77 ± 0.16 and the “kinh (10^4 M^−1s^−1) ± SD” value was 1.03 ± 0.01 10^4 M^−1s^−1.
